Experimental data reported in US20140275275A1, “Chlorhexadine Antiseptic” (CARNELL & HERZOG, LLC, priority 2013, published 2014).

System: methicillin-resistant Staphylococcus aureus
Assay: In-vitro time-kill test on S. aureus (MRSA)
Settings: for Post-exposure population: inoculum 1.460×10^7 CFU/ML
Method: This example compares the test composition to a solution of 4% chlorhexidine gluconate. The microorganism used in the test was methicillin-resistant Staphylococcus aureus.
An in-vitro time-kill test was performed on S. aureus using both the test composition and the solution of 4% chlorhexidine gluconate. A S. aureus suspension with an inoculum level of 1.460×10^7 colony-forming units (CFU)/ML was used for all tests. A 0.1 mL aliquot of the S. aureus suspension was added to 9.9 mL of the test composition or the 4% chlorhexidine gluconate solution and exposed for periods of one minute, five minutes, and 10 minutes. At the end of each exposure period, a neutralizer was added to stop the bactericidal activity.

For N=C(NCCCCCCNC(=N)NC(=N)Nc1ccc(Cl)cc1)NC(=N)Nc1ccc(Cl)cc1.O=C(O)[C@H](O)[C@@H](O)[C@H](O)[C@H](O)CO.O=C(O)[C@H](O)[C@@H](O)[C@H](O)[C@H](O)CO [4% chlorhexidine gluconate, chlorhexidine gluconate], the Log10 reduction (exposure 1 minute) was 4.0798 Log10, the Percent reduction (exposure 1 minute) was 99.9917% and the Post-exposure population (exposure 1 minute) was 1.2150 × 10^3 CFU/ML. For the same molecule, the Log10 reduction (exposure 5 minutes) was 6.1644 Log10, the Percent reduction (exposure 5 minutes) was 99.9999% and the Post-exposure population (exposure 5 minutes) was <1.00 × 10^1 CFU/ML. For the same molecule, the Log10 reduction (exposure 10 minutes) was 6.1644 Log10, the Percent reduction (exposure 10 minutes) was 99.9999% and the Post-exposure population (exposure 10 minutes) was <1.00 × 10^1 CFU/ML.
